Where “and” joins values, the source holds several entries; their conditions need not be identical. Identical values can stand only once. Counter-ions that a name gives are not always drawn. Marks after values point to notes of the source that are not given here.
Columns and labels:
[1] = system: scopolamine-treated cynomolgus monkeys; assay: Scopolamine-induced impairment of vsPAL task performance, treatment + scopolamine; type: in vivo, cynomolgus monkeys (Macaca Fasicularis); conditions: for scopolamine impairment: difference between vehicle+vehicle and vehicle+scopolamine, % correct eventual: 4-stimuli condition; for Percent Correct on Initial Attempt (SEM), 2 stimuli / Percent Correct on Initial Attempt (SEM), 3 stimuli / Percent Correct on Initial Attempt (SEM), 4 stimuli: Vehicle + Scopolamine; for mean (cohen's d calculations): eventual correct, 4-stimuli
Description: Doses cited refer to the free base form of the compounds. […] All drugs were administered intramuscularly (i.m.) in a dosing volume of 0.1–0.2 ml/kg.
On days when compound testing occurred, approximately half the cohort received one dose and the remainder another dose of the same compound and therefore dose order was staggered between animals. With the exception of EVP-6124, all other compounds were tested in a single dose response study.
Cohen’s d values of >0.2, >0.5 and >0.8 are described using the conventions of small, medium, and large effects, respectively.

cynomolgus monkeys = assay: Scopolamine dose-response on CANTAB vsPAL task performance
Description: Thirteen experimentally naïve male cynomolgus monkeys (Macaca Fasicularis; 3–5 years of age; 5.0–7.5 kg at the beginning of the study) served as subjects. Subjects were housed in pairs, separated during testing (Monday through Friday) and re-paired after feeding in the afternoon. Subjects were fed standard monkey chow (Harlan Teklad Global 20% protein Primate Diet 2050) in sufficient quantities to ensure normal growth while maintaining sufficient motivation to perform the cognitive testing [30]. Water was continuously available except during behavioral testing. Fresh fruit, toys and foraging devices were routinely provided in the monkey colony rooms.
For behavioral testing subjects were seated comfortably in restraint chairs (Primate Products, Immokalee, FL), and placed in individual, sound attenuated chambers (Med-Associates, St. Albans, VT), equipped with lights, a white noise generator and a monitoring camera. A touch-sensitive computer monitor was within easy reach and session events were controlled by a Monkey CANTAB test station; (Lafayette Instruments, Lafayette, IN) and Whisker Control [45]. Following correct responses, a dispenser delivered 190 mg banana-flavored pellets (Bioserv, Frenchtown PA).
Ten subjects were trained to perform the CANTAB vsPAL test as previously described [38, 46]. Briefly, the test required the animal to associate a stimulus (abstract shape) with a given spatial location on the computer screen (one of the four corners; S1 Fig). Ten trials each of increasing difficulty (2-, 3- or 4- stimuli) were presented. Trials began with the ‘sample phase’ where stimuli are presented and touched sequentially in their respective locations with a 1 sec delay between stimuli. Following 5 sec where the screen was blank, the choice phase began. The same stimulus was presented in all four corners of the screen for all difficulty levels. […] After a 1 sec screen blank another stimulus was presented in all four corners. If the animal touched the correct location for all shapes in the choice phase on the first attempt the trial was recorded as ‘correct on the initial attempt’. […] The same trial could be repeated up to 5 additional times.
If the animal learned the sequence by the 6th attempt, the trial was recorded as ‘eventual correct’, or ‘incorrect’ if not. […] Additional measures were the percent completion (the proportion of trials on which both sample and choice responses were made), and response latency (time from sample onset to the screen touch in the choice phase, averaged across difficulty conditions).
Drug testing was conducted on Mondays and Thursdays. An additional baseline session was conducted on Tuesdays. […] Additional animals were included in later studies as their performance improved.
There was a washout period of at least 2 weeks between studies.
Accuracy measures (i.e. percent initially correct and percent eventually correct) were analyzed with repeated measures analysis of variance (RM-ANOVA) with the two within-subject factors of difficulty (mean of number of stimuli per trial and overall mean) and treatment. Latencies to respond in all choice phases and percent task completed for the entire session were analyzed by one way RM ANOVA. […] Statistical tests were performed using OriginPro v 9.1 (OriginLab Co., Northampton, MA). Missing data were filled with the mean of the respective cell to enable RM ANOVA computation.

[2] = Average Individualized Scopolamine (0.0045-0.0067 mg/kg) + Vehicle, individual animals
[3] = Average Individualized Scopolamine + Vehicle, MEAN of 8 animals
[4] = Average Individualized Scopolamine + Vehicle, group MEAN
[5] = Average Individualized Scopolamine + Vehicle, group MEAN of 6 animals
[6] = EVP DRC 2, Average Individualized Scopolamine + Vehicle, group MEAN of 7 animals
[7] = Scopolamine 0.003 mg/kg, i.m., MEAN
[8] = Scopolamine 0.003 mg/kg, i.m., individual animals
[9] = Scopolamine 0.0056 mg/kg, i.m., MEAN
[10] = Scopolamine 0.0056 mg/kg, i.m., individual animals
[11] = Scopolamine 0.01 mg/kg i.m., MEAN
[12] = Scopolamine 0.01 mg/kg i.m., individual animals

## CN1[C@@H]2C[C@@H](OC(=O)[C@H](CO)c3ccccc3)C[C@H]1[C@@H]1O[C@@H]12 [Scopolamine, Scopolamine HCl]
[1]; donepezil study
  scopolamine impairment: difference between vehicle+vehicle and vehicle+scopolamine, % correct eventual: 49.4%
  Percent Correct on Initial Attempt (SEM), 2 stimuli: 79.6% (5.3%)
  Percent Correct on Initial Attempt (SEM), 3 stimuli: 49.2% (6.5%) †
  Percent Correct on Initial Attempt (SEM), 4 stimuli: 25.8% (4.5%) ††
[1]; first EVP-6124 study
  scopolamine impairment: difference between vehicle+vehicle and vehicle+scopolamine, % correct eventual: 20.5%
[1]; [2]
  % Completion: 57.3% and 62.4% and 94.5% and 85.3% and 87.0% and 81.6%
  Average Response Latency: 1943.4 ms and 2791.5 ms and 2008.6 ms and 2389.3 ms and 2808.7 ms and 2502.8 ms
  Eventual Correct, 2 Stimuli: 90.0% and 100.0% and 95.0% and 97.5%
  Eventual Correct, 3 Stimuli: 65.7% and 66.7% and 90.0%
  Eventual Correct, 4 Stimuli: 36.7% and 32.2% and 47.1% and 63.3% and 32.5% and 69.2%
  Eventual Correct, Overall Mean % Correct: 66.2% and 66.3% and 73.2% and 84.4% and 71.7% and 85.6%
  Initial Correct, 3 Stimuli: 40.0% and 47.5% and 30.0% and 42.5% and 60.0%
  Initial Correct, 4 Stimuli: 16.7% and 22.5% and 20.0%
  Initial Correct, Overall Mean % Correct: 53.1% and 56.9% and 66.9%
  Initial correct, 2 Stimuli: 60.0% and 95.0% and 70.0% and 87.5%
[1]; [3]
  Average Response Latency (Avg Rsp Lat): 2342.3 ms
  Eventual Correct, 2 Stimuli: 98.1%
  Eventual Correct, 4 Stimuli: 50.3%
  Eventual Correct, Overall Mean % Correct: 76.1%
  Initial Correct, 3 Stimuli: 46.2%
  Initial Correct, 4 Stimuli: 19.5%
  Initial correct, 2 Stimuli: 84.3%
[1]; [4]
  % Completion: 83.8%
  Average Response Latency (Avg rsp lat): 1934.6 ms
  Eventual Correct, 2 Stimuli: 99.7%
  Eventual Correct, 3 Stimuli: 98.0%
  Eventual Correct, Overall Mean % Correct: 92.3%
  Initial Correct, 3 Stimuli: 70.0%
  Initial Correct, Overall Mean % Correct: 65.4%
  Initial correct, 2 Stimuli: 87.2%
[1]; [5]
  % Completion: 78.0%
  Average Response Latency: 2407.4 ms
  Eventual Correct, 2 Stimuli: 97.1%
  Eventual Correct, 4 Stimuli: 46.8%
  Eventual Correct, Overall Mean % Correct: 74.6%
  Initial Correct, 3 Stimuli: 49.2%
[1]; [6]
  Average Response Latency (Avg rsp lat): 2021.60 ms
  Eventual Correct, 2 Stimuli: 99.5%
  Eventual Correct, 3 Stimuli: 95.7%
  Eventual Correct, 4 Stimuli: 65.7%
  Eventual Correct, Overall Mean % Correct: 87.7%
  Initial Correct, 3 Stimuli: 66.2%
  Initial Correct, 4 Stimuli: 34.6%
  Initial Correct, Overall Mean % Correct: 64.9%
  Initial correct, 2 Stimuli: 91.9%
[1]; BMS-933043 study
  Percent Correct on Initial Attempt (SEM), 2 stimuli: 89.6% (1.8%)
  Percent Correct on Initial Attempt (SEM), 3 stimuli: 67.0% (5.0%)
  Percent Correct on Initial Attempt (SEM), 4 stimuli: 37.3% (7.4%) ††
[1]; EVP-6124 study 1
  Percent Correct on Initial Attempt (SEM), 2 stimuli: 87.3% (4.0%)
  Percent Correct on Initial Attempt (SEM), 3 stimuli: 70.0% (3.4%) ††
  Percent Correct on Initial Attempt (SEM), 4 stimuli: 38.8% (4.0%) ††
[1]; EVP-6124 study 2
  Percent Correct on Initial Attempt (SEM), 2 stimuli: 91.9% (3.6%)
  Percent Correct on Initial Attempt (SEM), 3 stimuli: 66.2% (7.6%) †
  Percent Correct on Initial Attempt (SEM), 4 stimuli: 34.6% (4.2%) ††
[1]; RG3487 study
  Percent Correct on Initial Attempt (SEM), 2 stimuli: 84.3% (2.8%)
  Percent Correct on Initial Attempt (SEM), 3 stimuli: 46.2% (8.0%) ††
  Percent Correct on Initial Attempt (SEM), 4 stimuli: 19.5% (4.9%) ††
[1]; scop+vehicle, donepezil study
  mean (cohen's d calculations): 46.8
[1]; veh+scop, BMS-933043 study
  mean (cohen's d calculations): 65.7
[1]; vehicle+scop, EVP-6124 study 2
  mean (cohen's d calculations): 65.7
Cynomolgus monkeys; [7]
  Eventual Correct, 2 Stimuli: 100.0%
  Eventual Correct, 3 Stimuli: 100.0%
  Eventual Correct, 4 Stimuli: 90.0%
  Eventual Correct, Overall Mean % Correct: 96.7%
  Initial Correct, 3 Stimuli: 68.7%
  Initial Correct, 4 Stimuli: 57.5%
  Initial Correct, Overall Mean % Correct: 74.2%
  Initial correct, 2 Stimuli: 96.3%
Cynomolgus monkeys; [8]
  % Completion: 63.0% and 97.0% and 100.0% and 84.0%
  Average Response Latency, ms (Avg Rsp Lat): 6153.3 ms and 1831.0 ms and 1549.1 ms and 1787.2 ms and 2129.2 ms and 2342.9 ms and 2289.1 ms and 1548.2 ms
  Eventual Correct, 2 Stimuli: 100.0%
  Eventual Correct, 3 Stimuli: 100.0%
  Eventual Correct, 4 Stimuli: 90.0% and 100.0%
  Eventual Correct, Overall Mean % Correct: 93.3% and 96.7% and 100.0%
  Initial Correct, 3 Stimuli: 70.0% and 100.0% and 40.0% and 60.0%
  Initial Correct, 4 Stimuli: 30.0% and 70.0% and 100.0% and 50.0% and 60.0%
  Initial Correct, Overall Mean % Correct: 63.3% and 100.0% and 73.3% and 66.7% and 70.0% and 76.7%
  Initial correct, 2 Stimuli: 90.0% and 100.0%
Cynomolgus monkeys; [9]
  Eventual Correct, 2 Stimuli: 95.0%
  Eventual Correct, 3 Stimuli: 84.3%
  Eventual Correct, 4 Stimuli: 51.1%
  Eventual Correct, Overall Mean % Correct: 76.8%
  Initial Correct, 3 Stimuli: 54.3%
  Initial Correct, 4 Stimuli: 32.8%
Cynomolgus monkeys; [10]
  % Completion: 21.0% and 62.0% and 51.0% and 97.0% and 88.0% and 91.0% and 34.5%
  Average Response Latency, ms (Avg Rsp Lat): 1881.3 ms and 2302.7 ms and 2706.5 ms and 2004.6 ms and 2231.8 ms and 2896.7 ms and 2108.4 ms and 1817.8 ms
  Eventual Correct, 2 Stimuli: 60.0% and 100.0%
  Eventual Correct, 3 Stimuli: 100.0% and 50.0% and 90.0% and 70.0%
  Eventual Correct, 4 Stimuli: 50.0% and 16.7% and 70.0% and 0.0% and 90.0%
  Eventual Correct, Overall Mean % Correct: 83.3% and 55.6% and 86.7% and 90.0% and 56.7% and 96.7%
  Initial Correct, 3 Stimuli: 70.0% and 40.0% and 20.0% and 60.0% and 50.0%
  Initial Correct, 4 Stimuli: 30.0% and 16.7% and 50.0% and 0.0% and 60.0%
  Initial Correct, Overall Mean % Correct: 26.0% and 63.3% and 76.7% and 53.3%
  Initial correct, 2 Stimuli: 50.0% and 90.0% and 100.0%
Cynomolgus monkeys; [11]
  Eventual Correct, 2 Stimuli: 96.3%
  Eventual Correct, 4 Stimuli: 36.8%
  Eventual Correct, Overall Mean % Correct: 68.5%
  Initial Correct, 3 Stimuli: 47.8%
  Initial Correct, 4 Stimuli: 20.1%
Cynomolgus monkeys; [12]
  % Completion: 63.6% and 78.0% and 52.6% and 100.0% and 43.5% and 50.8% and 31.0%
  Average Response Latency, ms (Avg Rsp Lat): 3290.4 ms and 1872.3 ms and 1904.8 ms and 2135.7 ms and 2272.7 ms and 2295.1 ms and 2067.4 ms and 1369.7 ms
  Eventual Correct, 2 Stimuli: 100.0% and 90.0% and 80.0%
  Eventual Correct, 3 Stimuli: 100.0% and 60.0% and 90.0% and 14.3%
  Eventual Correct, 4 Stimuli: 44.4% and 25.0% and 0.0%
  Eventual Correct, Overall Mean % Correct: 81.5% and 75.0% and 53.3% and 89.3%
  Initial Correct, 3 Stimuli: 50.0% and 70.0% and 90.0% and 30.0% and 0.0% and 12.5%
  Initial Correct, 4 Stimuli: 33.3% and 25.0% and 0.0% and 22.2%
  Initial Correct, Overall Mean % Correct: 68.3% and 36.7% and 60.7% and 26.7% and 20.9% and 53.4%
  Initial correct, 2 Stimuli: 90.0% and 60.0% and 30.0%
